# Laboratory results: ChEMBL document CHEMBL3885861, “Open TG-GATES”
# Species: Rattus norvegicus
# Test: Open TG-GATES - Regimen: Single
# Type: toxicity, organism-based, Sprague-Dawley
# Design: regimen Single, gender Male, age 6 weeks
# Conditions: in vivo, po, 6 mg/kg, route gavage, dose level Low; for APTT / Bas / Eos / Fbg / Hb / Ht / Lym / MCH / MCHC / MCV / Mono / Neu / PT / Plat / RBC / Ret / WBC: tissue Blood; for LIVER: tissue Liver; for A/G / ALP / ALT / AST / BUN / CRE / Ca / Cl / DBIL / GLC / IP / K / LDH / Na / PL / RALB / TBIL / TC / TG / TP / gamma-GTP: tissue Plasma
structure (smiles),measurement,setting,value
"O=[N+]([O-])c1ccc(O)c([N+](=O)[O-])c1 [2,4-DINITROPHENOL]",TERMINAL_BW,3 h,204.4 g
same,APTT,3 h,17 s
same,Bas,3 h,0%
same,Eos,3 h,0.8%
same,Fbg,3 h,232 mg/dL
same,Hb,3 h,12.9 g/dL
same,Ht,3 h,38.5%
same,Lym,3 h,74.8%
same,MCH,3 h,21.6 pg
same,MCHC,3 h,33.5%
same,MCV,3 h,64.6 fL
same,Mono,3 h,9.6%
same,Neu,3 h,14.8%
same,PT,3 h,12.2 s
same,Plat,3 h,124.6 x10_4/uL
same,RBC,3 h,595.6 x10_4/ul
same,Ret,3 h,9.1%
same,WBC,3 h,105.2 x10_2/uL
same,LIVER,3 h,9.7 g
same,A/G,3 h,2.4
same,ALP,3 h,1437.4 IU/L
same,ALT,3 h,38 IU/L
same,AST,3 h,69 IU/L
same,BUN,3 h,11 mg/dL
same,CRE,3 h,0.4 mg/dL
same,Ca,3 h,11.2 mg/dL
same,Cl,3 h,103.2 meq/L
same,DBIL,3 h,0.014 mg/dL
same,GLC,3 h,185.2 mg/dL
same,IP,3 h,10.4 mg/dL
same,K,3 h,4.3 meq/L
same,LDH,3 h,110.2 IU/L
same,Na,3 h,138.4 meq/L
same,PL,3 h,139.8 mg/dL
same,RALB,3 h,3.8 g/dL
same,TBIL,3 h,0.046 mg/dL
same,TC,3 h,79 mg/dL
same,TG,3 h,57 mg/dL
same,TP,3 h,5.4 g/dL
same,gamma-GTP,3 h,0 IU/L
same,TERMINAL_BW,6 h,202.3 g
same,APTT,6 h,16.3 s
same,Bas,6 h,0%
same,Eos,6 h,1%
same,Fbg,6 h,252.2 mg/dL
same,Hb,6 h,13 g/dL
same,Ht,6 h,38.9%
same,Lym,6 h,73%
same,MCH,6 h,21.3 pg
same,MCHC,6 h,33.4%
same,MCV,6 h,63.9 fL
same,Mono,6 h,10%
same,Neu,6 h,16.4%
same,PT,6 h,12.1 s
same,Plat,6 h,124.2 x10_4/uL
same,RBC,6 h,608.6 x10_4/ul
same,Ret,6 h,9.3%
same,WBC,6 h,116.8 x10_2/uL
same,LIVER,6 h,9.2 g
same,A/G,6 h,2.4
same,ALP,6 h,1588.6 IU/L
same,ALT,6 h,35.4 IU/L
same,AST,6 h,69.2 IU/L
same,BUN,6 h,10.6 mg/dL
same,CRE,6 h,0.4 mg/dL
same,Ca,6 h,10.9 mg/dL
same,Cl,6 h,105.2 meq/L
same,DBIL,6 h,0.012 mg/dL
same,GLC,6 h,198 mg/dL
same,IP,6 h,9.3 mg/dL
same,K,6 h,4.4 meq/L
same,LDH,6 h,135.6 IU/L
same,Na,6 h,139 meq/L
same,PL,6 h,154 mg/dL
same,RALB,6 h,3.9 g/dL
same,TBIL,6 h,0.05 mg/dL
same,TC,6 h,92.4 mg/dL
same,TG,6 h,61.4 mg/dL
same,TP,6 h,5.6 g/dL
same,gamma-GTP,6 h,0 IU/L
same,TERMINAL_BW,9 h,199.2 g
same,APTT,9 h,15.6 s
same,Bas,9 h,0%
same,Eos,9 h,1%
same,Fbg,9 h,244.6 mg/dL
same,Hb,9 h,12.9 g/dL
same,Ht,9 h,38.5%
same,Lym,9 h,72%
same,MCH,9 h,21.7 pg
same,MCHC,9 h,33.5%
same,MCV,9 h,64.7 fL
same,Mono,9 h,12.8%
same,Neu,9 h,14.4%
same,PT,9 h,11.9 s
same,Plat,9 h,125.6 x10_4/uL
same,RBC,9 h,595 x10_4/ul
same,Ret,9 h,8.8%
same,WBC,9 h,87.8 x10_2/uL
same,LIVER,9 h,8.6 g
same,A/G,9 h,2.5
same,ALP,9 h,1398.6 IU/L
same,ALT,9 h,31.4 IU/L
same,AST,9 h,66.2 IU/L
same,BUN,9 h,11.4 mg/dL
same,CRE,9 h,0.4 mg/dL
same,Ca,9 h,11 mg/dL
same,Cl,9 h,104.4 meq/L
same,DBIL,9 h,0.01 mg/dL
same,GLC,9 h,191.4 mg/dL
same,IP,9 h,10.7 mg/dL
same,K,9 h,4.9 meq/L
same,LDH,9 h,145 IU/L
same,Na,9 h,138.4 meq/L
same,PL,9 h,157.4 mg/dL
same,RALB,9 h,3.9 g/dL
same,TBIL,9 h,0.046 mg/dL
same,TC,9 h,93.2 mg/dL
same,TG,9 h,57.6 mg/dL
same,TP,9 h,5.5 g/dL
same,gamma-GTP,9 h,0.2 IU/L
same,TERMINAL_BW,24 h,220.4 g
same,APTT,24 h,15.9 s
same,Bas,24 h,0%
same,Eos,24 h,1.4%
same,Fbg,24 h,237.4 mg/dL
same,Hb,24 h,12.8 g/dL
same,Ht,24 h,38.4%
same,Lym,24 h,72.8%
same,MCH,24 h,21.6 pg
same,MCHC,24 h,33.4%
same,MCV,24 h,64.8 fL
same,Mono,24 h,10.4%
same,Neu,24 h,15.6%
same,PT,24 h,11.6 s
same,Plat,24 h,131.6 x10_4/uL
same,RBC,24 h,593.2 x10_4/ul
same,Ret,24 h,7.8%
same,WBC,24 h,107.2 x10_2/uL
same,LIVER,24 h,11.3 g
same,A/G,24 h,2.5
same,ALP,24 h,1262 IU/L
same,ALT,24 h,38.8 IU/L
same,AST,24 h,64.8 IU/L
same,BUN,24 h,14.8 mg/dL
same,CRE,24 h,0.4 mg/dL
same,Ca,24 h,11.3 mg/dL
same,Cl,24 h,103.2 meq/L
same,DBIL,24 h,0.012 mg/dL
same,GLC,24 h,193.6 mg/dL
same,IP,24 h,7.3 mg/dL
same,K,24 h,4.6 meq/L
same,LDH,24 h,105 IU/L
same,Na,24 h,139.4 meq/L
same,PL,24 h,159.6 mg/dL
same,RALB,24 h,4 g/dL
same,TBIL,24 h,0.034 mg/dL
same,TC,24 h,90 mg/dL
same,TG,24 h,116 mg/dL
same,TP,24 h,5.6 g/dL
same,gamma-GTP,24 h,0.4 IU/L
